Reference: the NIST ThermoML archive (doi:10.1016/j.jct.2018.04.018)
Numbers after ± are expanded uncertainties.

Test: molar heat capacity at constant pressure
Conditions: 101.33 kPa, Liquid, DSC

CCCCCCCC[n+]1ccn(C)c1.F[P-](F)(F)(F)(F)F [1-octyl-3-methylimidazolium hexafluorophosphate]
Conditions	molar heat capacity at constant pressure [J/K/mol]
253.15 K	549.23 ± 21
258.15 K	551.95 ± 21
263.15 K	554.33 ± 21
268.15 K	556.71 ± 21
273.15 K	559.77 ± 22
278.15 K	562.84 ± 22
283.15 K	566.92 ± 22
288.15 K	570.32 ± 22
293.15 K	573.73 ± 22
298.15 K	577.47 ± 22
303.15 K	580.53 ± 22
308.15 K	584.28 ± 23
313.15 K	587.34 ± 23
318.15 K	590.4 ± 23
323.15 K	593.46 ± 23
328.15 K	597.21 ± 23
333.15 K	600.27 ± 23
338.15 K	602.99 ± 23
343.15 K	606.05 ± 23
348.15 K	608.78 ± 23
353.15 K	611.84 ± 24
358.15 K	614.22 ± 24
363.15 K	617.28 ± 24
368.15 K	620.01 ± 24
373.15 K	622.39 ± 24
378.15 K	625.45 ± 24
383.15 K	628.17 ± 24
388.15 K	630.55 ± 25
393.15 K	633.28 ± 25
398.15 K	636.68 ± 25
403.15 K	639.74 ± 25
408.15 K	643.83 ± 25
413.15 K	646.89 ± 25
